According to patent US8426429B2, “2-amino-quinazoline derivatives useful as inhibitors of β-secretase (BACE)” (Jansssen Pharmaceutica N.V., priority 2004, dated 2013):

Tests used:
β-secretase (BACE) [1] = target: T1, β-secretase (BACE) (Homo sapiens, UniProt P56817); experiment: BACE % Inhibition Assay ((Aedens)-[…]-(Dabcyl K-amide) substrate); type: biochemical; details: % error ±10%
T1 construct: purchased Panvera
Method: The substrate stock solution was prepared in DMSO as a 10 mg/mL solution. The substrate working solution was prepared by diluting the 10 mg/mL stock solution with substrate assay buffer to a final concentration of […]. The β-secretase (BACE) working solution was prepared by diluting a 0.83 mg/mL BACE stock solution with enzyme assay buffer to a final concentration of 4 μg/mL.
Test compounds were dissolved in DMSO to 10 mM.
The screening procedure for this assay was as follows: 15 μL of BACE working solution was pipetted into each well of a 96-well plate. To each well was then pipetted 2 μL of test compound at the selected concentration. Test compound and BACE were then mixed with a pipettor and incubated for 20 min at room temperature. To each well was then added 10 μL of the substrate working solution. The plates were then incubated for 1 hour at room temperature.
The procedure for the blank was as follows. 15 μL of assay buffer was pipetted into each well to be used as a blank control. To each well was then added 2 μL of vehicle and 10 μL of substrate working solution. The plates were then incubated for 1 hour at room temperature.
The procedure for the positive control was as follows: 15 μl of BACE working solution was pipetted into each well to be used as a positive control. To each well was then pipetted 2 μL of vehicle. Vehicle and BACE were then mixed with a pipettor and incubated for 20 min at room temperature. To each well was then added 10 μL of the substrate working solution. The plates were the incubated for 1 hour at room temperature.
For test compounds, % inhibition was determined at each concentration as follows: […]

β-secretase (BACE) [2] = target: T1, β-secretase (BACE); experiment: BACE FS1 % Inhibition Assay; type: biochemical
Outline: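 Percent inhibition per compound concentration was referenced to vehicle-treated enzyme and no-enzyme wells. Enzyme at a 4 μg/mL working stock plus compound was mixed for 20 min at room temperature before the FS1 substrate (300 μg/mL working stock) was added for a 1 h room-temperature reaction.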

T1 sequence (P56817 46-501): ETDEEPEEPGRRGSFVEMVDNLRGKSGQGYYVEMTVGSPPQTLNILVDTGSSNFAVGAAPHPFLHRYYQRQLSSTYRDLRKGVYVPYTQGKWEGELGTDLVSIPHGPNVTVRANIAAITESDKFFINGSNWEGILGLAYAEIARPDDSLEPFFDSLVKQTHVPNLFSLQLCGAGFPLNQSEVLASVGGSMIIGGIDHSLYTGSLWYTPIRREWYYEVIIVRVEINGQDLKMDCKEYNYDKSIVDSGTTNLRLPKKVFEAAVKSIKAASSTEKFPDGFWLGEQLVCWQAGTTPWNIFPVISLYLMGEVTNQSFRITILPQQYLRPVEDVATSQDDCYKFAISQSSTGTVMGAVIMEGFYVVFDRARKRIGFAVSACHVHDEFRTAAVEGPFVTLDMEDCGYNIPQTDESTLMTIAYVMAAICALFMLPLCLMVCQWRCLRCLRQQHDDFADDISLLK

SMILES	% Inhibition (β-secretase (BACE) [1]; 3 μM compound)	% Inhibition (β-secretase (BACE) [1]; 10 μM compound)	% Inhibition (β-secretase (BACE) [1]; 0.3 μM compound)	% Inhibition (β-secretase (BACE) [1]; 1 μM compound)	further results
CN(C(=O)c1ccc(CN2Cc3cc(Oc4ccccc4)ccc3N=C2N)cc1)C1CCCCC1 [Compound 97]	<30%	53%	–	–	–
Cc1ccc(S(=O)(=O)NCCN2Cc3cc(Oc4ccccc4)ccc3N=C2N)cc1 [Compound 109]	<30%	58%	–	–	–
CN(C(=O)c1cccc(N2Cc3cc(Oc4ccccc4)ccc3N=C2N)c1)C1CCCCC1 [Compound 94]	<30%	<30%	–	–	–
CN(C(=O)C1CCC(CN2Cc3cc(Oc4ccccc4)ccc3N=C2N)CC1)C1CCCCC1 (centres unmarked) [Compound 100]	<30%	<30%	–	–	–
CN(C(=O)c1cc(CN2Cc3cc(Oc4ccccc4)ccc3N=C2N)ccn1)C1CCCCC1 [Compound 89]	77%	81%	–	–	–
NC1=Nc2ccc(Oc3ccccc3)cc2CN1C(CNC(=O)CCC1CCCC1)C1CCCCC1 (centres unmarked) [Compound 366]	119%	–	64%	113%	–
CC(C)(C)C(=O)NCC(C1CCCCC1)N1Cc2cc(Oc3ccccc3)ccc2N=C1N (centres unmarked) [Compound 317]	–	–	<30%	66%	–
NC1=Nc2ccc(Oc3ccccc3)cc2CN1C(CNC(=O)C1(c2ccc(Cl)cc2)CCCC1)C1CCCCC1 (centres unmarked) [Compound 390]	–	–	<30%	50%	–
CN(C(=O)[C@@H]1CCCC[C@@H]1N1Cc2cc(Oc3ccccc3)ccc2N=C1N)C1CCCCC1 [Compound 87]	<30%	<30%	–	–	–
CN(C(=O)[C@@H]1CCC[C@@H]1N1Cc2cc(Oc3ccccc3)ccc2N=C1N)C1CCCCC1 [Compound 72]	<30%	<30%	–	–	–
CN(C(=O)[C@H]1CCCC[C@H]1N1Cc2cc(Oc3ccccc3)ccc2N=C1N)C1CCCCC1 [Compound 81]	<30%	<30%	–	–	–
CCN(CC)CCN1Cc2cc(Oc3ccccc3)ccc2N=C1N [Compound 79]	<30%	<30%	–	–	–
CCCCC(CC)C(=O)NCc1cccc(CN2Cc3cc(Oc4ccccc4)ccc3N=C2N)c1 (centres unmarked) [Compound 339]	<30%	–	<30%	<30%	–
NC1=Nc2ccc(Oc3ccccc3)cc2CN1Cc1cccc(CNC(=O)C(c2ccccc2)c2ccccc2)c1 [Compound 337]	<30%	–	<30%	<30%	–
CC(C)(C)OC(=O)N1CCC(N2Cc3cc(Oc4ccccc4)ccc3N=C2N)C1 (centres unmarked) [Compound 93]	<30%	<30%	–	–	–
CC(C)(C)OC(=O)NCC(C1CCCCC1)N1Cc2cc(Oc3ccccc3)ccc2N=C1N (centres unmarked) [Compound 367]	111%	–	<30%	80%	–
NC1=Nc2ccc(Oc3ccccc3)cc2CN1C(CCNC(=O)C1CCCC1)C1CCCCC1 (centres unmarked) [Compound 392]	120%	–	75%	116%	–
CCCC(CCC)C(=O)NCc1cccc(CN2Cc3cc(Oc4ccccc4)ccc3N=C2N)c1 [Compound 338]	<30%	–	<30%	<30%	–
CCCC(CNC(=O)C1CCCCC1)N1Cc2cc(Oc3ccccc3)ccc2N=C1N (centres unmarked) [Compound 343]	118%	–	81%	101%	–
CCOC(=O)CCN1Cc2cc(Oc3ccccc3)ccc2N=C1N [Compound 65]	<30%	<30%	–	–	–
NC1=Nc2ccc(Oc3ccccc3)cc2CN1Cc1cccc(C(=O)NCCc2ccc(S(N)(=O)=O)cc2)c1 [Compound 188]	–	–	–	–	% Inhibition (FS) (β-secretase (BACE) [2]; 0.3 μM test compound): <30%; % Inhibition (FS) (β-secretase (BACE) [2]; 1 μM test compound): <30%; % Inhibition (FS) (β-secretase (BACE) [2]; 3 μM test compound): <30%
COc1ccc(C)cc1Oc1ccc2c(c1)CN(Cc1cccc(C(=O)N(C)C3CCCCC3)c1)C(N)=N2 [Compound 467]	–	–	–	–	% Inhibition (FS) (β-secretase (BACE) [2]; 0.3 μM test compound): <30%; % Inhibition (FS) (β-secretase (BACE) [2]; 1 μM test compound): <30%; % Inhibition (FS) (β-secretase (BACE) [2]; 3 μM test compound): <30%
